In patent US9848603B2, “Methods for protecting plants with antifungal compositions” (priority 2008, dated 2017):

Columns and labels:
[1] = system: Verticillium dahliae; type: cell-based; conditions: read-out: NaD1 IC50
[2] = system: Fov hyphae; assay: Isolation of NaD1 from treated hyphae (SDS-PAGE and immunoblotting of cytoplasmic contents)
Procedure: Fov hyphae were grown as described above prior to the addition of NaD1 (10 μM final concentration) to 1 mL of the culture. Samples (100 μL) were collected after 0, 5, 10, 30, 60, 90 and 120 min. Hyphae were collected by centrifugation (10 min, 10,000×g) and the supernatant was stored at −20° C. for analysis. Hyphae were washed (2×10 min) with KCl (0.6 M) to remove any ionically bound protein before they were resuspended in 50 mM CAPS buffer (pH 10.0) containing 10 mM DTT for 20 min. Hyphae were collected by centrifugation and the supernatant, containing cell wall proteins, was collected for analysis. The pellet (containing cells) was resuspended in water and the cells were lysed using glass beads (Sigma, 60 mg) and vortexing (3×10 min). Cellular debris was removed by centrifugation (16,000×g, 10 min) and the supernatant collected for analysis. All samples were then analyzed by SDS-PAGE and immunoblotting.

[3] = system: Escherichia coli; assay: Effect of NaD1 on bacterial growth; type: cell-based
[4] = system: Thielaviopsis basicola; type: cell-based; conditions: read-out: NaD1 IC50
[5] = system: Saccharomyces cerevisiae; assay: Effect of NaD1 on growth of yeast strains
Procedure: (§1) The effect of NaD1 on the growth of the yeast strains Candida albicans, Pichia pastoris and Saccharomyces cerevisiae (from Department of Microbiology, La Trobe University) was assayed in microtitre plates. Cells were grown in YPD for 48 h, then counted using a haemocytometer and diluted to a concentration of 5×10^4 cells/mL in fresh YPD. Cell suspension (100 μL) containing 0-10 μM NaD1 was added to the wells of a 96-well microtitre plate and incubated for 48 h at 30° C. Growth was determined by measuring the optical density at 595 nm using a microtitre plate reader. Each test was performed in quadruplicate.

[6] = system: F. graminearum hyphae; type: cell-based, Fusarium graminearum; conditions: various concentrations of NaD1
[7] = system: Fov hyphae; assay: Immunogold electron microscopy of NaD1-treated hyphae; type: cell-based, Fusarium oxysporum f. sp. vasinfectum; conditions: NaD1 (10 μM) for 2 h
[8] = system: Fusarium graminearum; type: cell-based; conditions: defensin in combination with the triazole tebuconazole
[9] = system: filamentous fungi; type: cell-based; conditions: Fov, F. graminearum, F. oxysporum f. sp. dianthi and lycopersici, F. solani, F. pseudograminearum, C. heterostrophus, A. brassicola, G. graminis var. tritici, T. basicola, V. dahliae, A. nidulans, S. sclerotiorum, B. cinerea, L. maculans
[10] = system: Fusarium oxysporum f. sp. vasinfectum (Fov); assay: Growth cabinet bioassay of transgenic and non-transgenic cotton seed coated with fungicide in Fov infected soil; conditions: transgenic Coker expressing NaD1, seeds not coated with fungicide
Procedure: The assay was conducted as described for the glasshouse assay except for the following modifications.
Thirty seeds were planted for each test (transgenic and non-transgenic, coated and non-coated seed). Seed was sown directly into the containers, 24 seed per box in a 4×6 array. Six seed for each test were sown randomly in each box. Seeds were germinated for 7 days, conditions were 16 hours light at 30° C. and 8 hours dark at 15° C., with a ramp of 2° C. per hour. For the remainder of the experiment the conditions were 16 hours light at 25° C. and 8 hours dark at 10° C. with a ramp of 2° C. per hour.
Plants were grown for 4 weeks. Foliar symptom development was measured throughout the trial and disease score was determined by destructive sampling at the end of the trial. The following rating was used to determine the disease score: 0=no symptoms, 1=vascular browning to base of stem, 2=vascular browning to cotyledons, 3=vascular browning past cotyledons, 4=vascular browning to true leaves, 5=dead. The average disease score was an average for all seeds that germinated.

[11] = system: Aspergillus nidulans; type: cell-based; conditions: read-out: NaD1 IC50
[12] = system: Leptosphaeria maculans; assay: Fungal glasshouse bioassay of transgenic canola seedlings expressing NaD1; type: in vivo, canola (Brassica napus); conditions: NaD1 expressed in transgenic canola line CAT13.26
[13] = system: Fusarium graminearum; assay: microbe, parasite or virus in culture; type: cell-based
[14] = system: Fusarium oxysporum f. sp. vasinfectum (Fov); assay: Glasshouse bioassay of transgenic and non-transgenic cotton seed coated with fungicide in Fov infected soil; conditions: transgenic Coker expressing NaD1, seeds not coated with fungicide
Procedure: Cultures of Fov (isolate #24500 VCG 01111) were prepared in millet and incorporated into a soil mix. The infected soil was used to grow line 35.125.1 and non-transgenic Coker 315. The culture of Fov was prepared in ½ strength PDB (12 g/L potato dextrose) and grown for approximately one week at 26° C. The culture (5 to 10 mL) was used to infect autoclaved hulled millet which was then grown for 2 to 3 weeks at room temperature. The infected millet was incorporated into a pasteurized peat based soil mix at 1% (v/v), by vigorous mixing in a 200 L compost tumbler. The infected soil was transferred to plastic containers (10 L of mix per 13.5 L container).
The cotton seed was either non-coated or coated with the fungicide HEC5725 (active ingredient Fluoxastrobin, Bayer Crop Science, batch number 06529/0022) at a rate of 1 mL/kg of seed and allowed to dry prior to sowing. Water was added to facilitate even coating of the seed (62.5 mL/kg of seed). Untreated samples were treated with water only.
Forty eight seeds were planted for each test (transgenic and non-transgenic, coated and non-coated seed). Seed was sown directly into the containers, 12 seed per box in a 3×4 array. […]
Plants were grown for 7 weeks. Foliar symptom development was measured throughout the trial and disease score was determined by destructive sampling at the end of the trial. […]

[15] = system: Pichia pastoris; assay: Effect of NaD1 on growth of yeast strains
Procedure: as §1

[16] = system: Fov hyphae; assay: Membrane permeabilization of Fov hyphae, SYTOX green uptake; type: cell-based, Fusarium oxysporum f. sp. vasinfectum
[17] = system: Fov; assay: Effect of metal ions (CaCl2, MgCl2) on NaD1 activity against Fov; conditions: NaD1 10 μM; growth of Fov
Procedure: The activity of NaD1 against Fov was examined as described with varying concentrations of CaCl2 (0.1, 0.2, 0.5, 1.0 and 2.0 μM) or MgCl2 (1.0, 2.0, 10, 20 and 50 μM) present in the medium to determine the effects of divalent cations on NaD1 activity.

[18] = system: Candida albicans; assay: Effect of NaD1 on growth of yeast strains
Procedure: as §1

[19] = system: Fusarium oxysporum f. sp. vasinfectum (Fov); assay: Field trial of transgenic and non-transgenic cotton seed coated with fungicide in Fov infected soil; conditions: NaD1 expressed in transgenic line 35.125.1, coated or uncoated
Procedure: Seed of the two lines were either not coated with fungicide or were coated with the fungicide HEC5725 (active ingredient fluoxastrobin, Bayer CropScience, batch number 06529/0022) at a rate of 1 mL/kg of seed, or with the commercial seed coat fungicides Dynasty® (Registered Trademark) (active ingredients 75 g/L azoxystrobin, 37.5 g/L metalaxyl-m, 12.5 g/L fludioxonil, Syngenta) at a rate of 2 mL/kg of seed, Jockey® (Registered Trademark) (active ingredient 167 g/L fluquinconazole, Bayer CropScience) at a rate of 20 mL/kg of seed or Redigo® (Registered Trademark) (active ingredient 100 g/L prothioconazole, Bayer CropScience) at a rate of 1 mL/kg of seed. All seed (coated and uncoated with fungicide) was coated with the insecticide Gaucho® (Registered Trademark) (600 g/L imidacloprid, Bayer CropScience) to control early season thrips and aphids. Seed was prepared to ensure even coating of fungicide and insecticide and allowed to dry prior to sowing.
Plants were grown at a farm in the Darling Downs region of Queensland, Australia. Seed was mechanically planted into soil known to be infected with Fusarium oxysporum f.sp. vasinfectum. […]
Emergence and plant survival were recorded. […] Statistical significance of the interaction of plant line and mortality was calculated using a Pearson's chi-square test.

[20] = system: Pseudomonas aeruginosa; assay: Effect of NaD1 on bacterial growth; type: cell-based
[21] = system: Fov hyphae; assay: Uptake of FITC-labeled dextrans into NaD1-treated hyphae
Procedure: The uptake of FITC-labeled dextran with NaD1 treatment of fungal hyphae was also studied. Fov hyphae were grown as described above and incubated with NaD1 (final concentration 0.1, 2, 10 or 50 μM) or an equivalent volume of water for 2 h at RT with gentle agitation. Hyphae were washed twice for 10 min with half-strength PDB to remove excess NaD1 before FITC dextrans of either 4 kDa (FD-4, Sigma-Aldrich) or 10 kDa (FD-10, Sigma-Aldrich) were added to a final concentration of 1 mg/mL. Hyphae were incubated for a further 30 min at RT and then washed twice with half strength PDB to remove excess dextrans. Fluorescence microscopy was used to visualize hyphae as described for SYTOX® green. A second assay was performed under the same conditions except the dextrans were added at the same time as NaD1.

[22] = system: Verticillium dahliae; assay: Field trial of transgenic and non-transgenic cotton seed coated with fungicide in Verticillium dahliae infected soil; type: in vivo
[23] = system: Leptosphaeria maculans; type: cell-based; conditions: read-out: NaD1 IC50
[24] = system: Fusarium oxysporum f. sp. vasinfectum (Fov); type: cell-based; conditions: read-out: NaD1 IC50
[25] = system: Staphylococcus aureus; assay: Effect of NaD1 on bacterial growth; type: cell-based
[26] = system: Fov; conditions: transgenic cotton variety expressing NaD1, field trials; cited from earlier work
[27] = system: F. graminearum hyphae; type: cell-based, Fusarium graminearum
[28] = system: Spodoptera frugiperda (Sf21) insect cells; assay: Effect of NaD1 on growth of insect cells
Procedure: The effect of NaD1 on the growth of Insect cells was determined as follows. Spodoptera frugiperda (Sf21) insect cells were grown to ˜90% confluency in Sf-900 II serum free media (Gibco™, 20 mL) in a 75 cm^2 tissue culture flask with a vented cap (Nunc). Cells were then split one in two with fresh media. Cell suspension was added to 96-well flat-bottomed microtitre plate wells (190 μL/well) and the cells were allowed to settle for 30 min prior to addition of NaD1 (10 μL) to give a final concentration of 0-10 μM. Growth was monitored until the cells reached confluency (˜48 h).

[29] = system: HeLa cells
Procedure: To examine the effect of NaD1 on mammalian cell growth, HeLa cells were seeded at 50% in Dulbecco's modified Eagle's medium (Gibco™-BRL) containing 10% (v/v) fetal calf serum with or without NaD1 (10 μM) at 37° C. under an atmosphere of 5% CO2 and 95% air in a 60 mm Petri dish. Cells were incubated for 48 h at 37° C. before they were stained with trypan blue to check viability and counted using a haemocytometer.

[30] = system: Bacillus cereus; assay: Effect of NaD1 on bacterial growth; type: cell-based
[31] = system: Fov hyphae; assay: Detection of reactive oxygen species (DHR123 oxidation) in response to NaD1; conditions: NaD1 0.1, 2 and 10 μM or 10 μM NaD1R&A
[32] = read-out: NaD1 IC50, growth inhibition

NaD1: plant defensin isolated from floral tissue of Nicotiana alata; also expressed in transgenic cotton line 35.125.1 and canola line CAT13.26 (RECKTESNTFPGICITKPPCRKACISEKFTDGHCSKILRRCLCTKPC; listed as Nicotiana alata)
IC50 [1]: 750 nM | time up to which amount of NaD1 in cytoplasm increased ([2]; decreased slightly afterwards): 60 min | time at which NaD1 uptake into cytoplasm occurred ([2]; immunoblotting of cytoplasmic contents): 20 min | effect on growth ([3]; Gram-negative bacterial strain tested: Escherichia coli): no effect | IC50 ([3]; growth inhibition, Escherichia coli): > 10000 nM | IC50 [4]: 800 nM | effect on growth [5]: no effect | IC50 [5, 32]: > 10000 nM | SYTOX green uptake [6]: increases with increasing concentrations of NaD1 | anti-NaD1 immunogold labeling of cytoplasm of granulated hyphae [7]: heavily labeled | synergy with tebuconazole (Io higher than Ee) [8]: Synergy | growth of filamentous fungi [9]: inhibit growth | mortality [10]: 7% | IC50 [11]: 800 nM | average lesion size versus non-transgenic plants ([12]; 10, 14 and 17 days after inoculation): significantly smaller | disease scores versus non-transgenic RI64 ([12]; Days 10, 14 and 17): significantly lower disease scores | toxicity with Fusarium graminearum ([13]; 0.24 μM NaD1 in the absence of fungicide): very low | inhibition of fungal growth ([13]; 0.5 μM defensin (alone)): about 13% | mortality [14]: approximately half the mortality of the non-transgenic plants | effect on growth [15]: no effect | IC50 [15, 32]: > 10000 nM | permeabilization of hyphae (SYTOX green) ([16]; 0.1, 2 or 10 μM NaD1 or 10 μM NaD1R&A): permeabilized hyphae | NaD1 concentration up to which Vmax (maximum rate of fluorescence increase) rose linearly; saturable above ([16]; SYTOX green uptake): 6.25 µM | time after which fluorescence began to plateau ([16]; SYTOX green uptake over time): 90 min | NaD1 concentration up to which rate of permeabilization increased progressively ([16]; above this (up to 50 μM) very little difference in kinetics): 3 µM | lag time before permeabilization ([16]; all NaD1 concentrations, SYTOX green uptake over time): around 20 min | SYTOX green uptake / permeabilization ([16]; at 0° C. (relative to 4° C.)): reduced even further | SYTOX green uptake / permeabilization ([16]; at 4° C.): only a small degree of permeabilization | SYTOX green uptake / permeabilization ([16]; at 10° C. (less than at 25° C.)): substantial uptake of SYTOX® green | SYTOX green uptake ([16]; lowest concentration, 0.1 μM NaD1): small amount of SYTOX® green uptake | CaCl2 concentration for complete inactivation of NaD1 [17]: < 2 mM | MgCl2 concentration for complete inactivation of NaD1 [17]: 50 mM | antagonism of Ca2+ relative to Mg2+ [17]: greater than 20 times | effect on growth [18]: no effect | IC50 [18, 32]: > 10000 nM | resistance to fungal infection relative to non-transgenic lines [19]: more resistant to fungal infection than the non-transgenic lines | effect on growth ([20]; Gram-negative bacterial strain tested: Pseudomonas aeruginosa): no effect | IC50 ([20]; growth inhibition, Pseudomonas aeruginosa): > 10000 nM | entry of 10 kDa FITC-dextran (23 Å) into NaD1-treated hyphae ([21]; even at very high concentrations of NaD1): excluded | entry of 4 kDa FITC-dextran (14 Å) into NaD1-treated hyphae ([21]; same NaD1 concentration that led to SYTOX green uptake): entered hyphae | yield versus untransformed Coker control ([22]; transgenic line 35.125.1, seed coat not used): not significantly different | uninfected plants at the end of the trial ([22]; transgenic line expressing NaD1, non-coated seeds): 3.6% | IC50 [23]: 800 nM | IC50 [24]: 1000 nM | effect on growth ([25]; Gram-positive bacterial strain tested: Staphylococcus aureus): no effect | IC50 ([25]; growth inhibition, Staphylococcus aureus): > 10000 nM | protection from pathological effects of Fov infection versus untransformed parent variety [26]: significantly protected | permeabilization activity among the plant defensins (ATP release) ([27]; 1 μM defensin): highest permeabilization activity | ATP release ([27]; 0.125 to 10 μM NaD1): concentration dependant release of ATP | toxicity to cells ([28]; Spodoptera frugiperda Sf-21 insect cells): not toxic | IC50 ([28]; read-out: NaD1 IC50, growth inhibition, Spodoptera frugiperda (Sf21)): > 10000 nM | toxicity to cells ([29]; human HeLa cells): not toxic | IC50 ([29]; read-out: NaD1 IC50, growth inhibition, HeLa cells): > 10000 nM | effect on growth ([30]; Gram-positive bacterial strain tested: Bacillus cereus): no effect | IC50 ([30]; growth inhibition, Bacillus cereus): > 10000 nM | ROS production (DHR123 oxidation fluorescence) [31]: concentration-dependent increase in fluorescence
